Results taken from patent US8609658B2, “N,N-dialkylalkylenyl esters, compositions thereof, and methods for use thereof” (Allergan, Inc., priority 2011, dated 2013).

Test: Aqueous stability in formulation vehicle (% substrate remaining)
Format: physicochemical
Details: 0.0005% w/w (5 ppm) compound in aqueous formulation vehicle, pH 6

% Substrate Remaining (7 days/25° C.) [%]	% Substrate Remaining (7 days/40° C.) [%]	% Substrate Remaining (28 days/25° C.) [%]	Compound
101.2	92	94.4	CCN(CC)CCCC(C)OC(=O)COc1cccc(NC(=O)c2cc(-c3cccc(F)c3)ccc2F)c1 (stereo not drawn)
95.5	49.2	82.6	CC[N+](C)(CC)CCCOC(=O)COc1cccc(NC(=O)c2cc(-c3cccc(F)c3)ccc2F)c1
92	78.8	78	CN(C)c1ccc(OC(=O)COc2cccc(NC(=O)c3cc(-c4cccc(F)c4)ccc3F)c2)cc1
61.5	18	12	O=C(COc1cccc(NC(=O)c2cc(-c3cccc(F)c3)ccc2F)c1)Oc1ccc(CN2CCOCC2)cc1
